The results in this text go back to US20180303807A1, “ANDROGEN RECEPTOR LIGANDS” (DUKE UNIVERSITY, priority 2015, published 2018).

Assay [1] deals with T1, AR (Homo sapiens, UniProt P10275).
T1 construct: expressed in transfected cells; host or cells: CV1 cells
T1 sequence (P10275 1-920): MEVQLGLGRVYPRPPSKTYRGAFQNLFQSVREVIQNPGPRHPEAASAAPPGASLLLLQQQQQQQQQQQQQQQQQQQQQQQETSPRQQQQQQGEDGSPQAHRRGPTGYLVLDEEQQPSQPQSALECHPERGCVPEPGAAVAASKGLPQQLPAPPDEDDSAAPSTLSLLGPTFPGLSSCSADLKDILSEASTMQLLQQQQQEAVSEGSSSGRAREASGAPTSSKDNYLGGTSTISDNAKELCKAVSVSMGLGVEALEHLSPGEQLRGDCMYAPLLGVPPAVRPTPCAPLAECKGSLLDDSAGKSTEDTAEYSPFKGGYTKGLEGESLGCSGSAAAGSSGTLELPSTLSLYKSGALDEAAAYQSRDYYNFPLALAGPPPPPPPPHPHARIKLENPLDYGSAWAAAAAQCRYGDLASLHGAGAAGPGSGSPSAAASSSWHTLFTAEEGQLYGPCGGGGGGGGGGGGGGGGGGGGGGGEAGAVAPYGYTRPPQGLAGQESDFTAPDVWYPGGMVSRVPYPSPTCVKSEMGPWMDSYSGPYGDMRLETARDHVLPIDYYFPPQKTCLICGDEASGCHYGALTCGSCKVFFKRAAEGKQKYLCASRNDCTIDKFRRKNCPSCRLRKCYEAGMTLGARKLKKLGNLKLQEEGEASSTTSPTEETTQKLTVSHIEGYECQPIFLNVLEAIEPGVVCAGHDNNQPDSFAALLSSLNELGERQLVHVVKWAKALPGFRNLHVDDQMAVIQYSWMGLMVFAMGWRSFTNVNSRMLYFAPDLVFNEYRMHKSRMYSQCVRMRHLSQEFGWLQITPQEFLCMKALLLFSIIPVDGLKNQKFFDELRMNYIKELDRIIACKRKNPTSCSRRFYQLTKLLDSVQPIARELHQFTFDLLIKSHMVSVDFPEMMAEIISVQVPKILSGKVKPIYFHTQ
In words: Reporter gene assay, AR transcriptional (MMTV-Luc) in CV1 cells. In kind it is cell-based. As to conditions: pcDNA-AR + MMTV-Luc, 0.1 nM R1881 plus test compound, 24 hrs, read-out: B1 = AR transcriptional IC50 (μM) in CV1 cells. In a few lines: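 CV1 cells transiently co-transfected with human AR, MMTV-Luc reporter and Renilla-Luc (transfection efficiency and toxicity read-out), then stimulated 24 h with 0.1 nM R1881 plus increasing test compound concentrations. Firefly and Renilla luciferase quantified by dual-luciferase assay; IC50 derived from concentration-response.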

Assay [2] concerns the target T2, AR (Homo sapiens, UniProt P10275, T878A).
T2 construct: endogenous in cells; host or cells: LNCaP cells
T2 sequence (P10275 1-920 T878A): T1 sequence (P10275 1-920) with T878A
The experiment in a line: In Cell Western AR degradation assay in LNCaP cells. In kind it is cell-based. The following applies: 18 hrs, greater than 50% degradation at 10 μM (method says 20 μM). Here is the method:
In Cell Western (AR degradation Assay, Table 2, B10). LNCaP cells were plated in 96-well clear bottom black plates (20K cells/well) in RPMI supplemented with 8% CFS. Following 48 hr incubation, cells were treated with hormone (20 μM test compound) for 18 hrs. Cells were fixed with formaldehyde (3.7%) and permeabilized using PBS (0.1% TRITON X-100). Cells were incubated with anti-AR antibody (N20, 1:2000), washed with PBS (0.1% Tween), and stained with 2nd antibody (Biotium CF770 goat anti-rabbit, 1:2000). AR protein expression was assessed using the LI-COR Odyssey imaging system. DRAQ5 (DNA stain, 1:10,000, Thermo Scientific) was used to normalize AR protein expression.
For B4-B7, scoring system is based on the relative AR target gene agonist/antagonist activity of test compounds when compared to benchmark compounds enzalutamide or bicalutamide. […] The lack of agonist activity is desirable for therapies intended to treat CRPC. For B4 and B6, a score of 1 indicates less agonism (highly desired activity) than benchmark compound enzalutamide, a score of 2 indicates equal agonism to enzalutamide (desirable), a score of 3 indicates agonism between enzalutamide and bicalutamide (less desirable activity), a score of 4 indicates equal agonism to bicalutamide (liability), and a score of 5 indicates higher agonism than bicalutamide (liability). For B5 and B7 a score of 1 indicates higher antagonist efficacy (highly desired activity) than benchmark compound enzalutamide, a score of 2 indicates equal antagonist efficacy to enzalutamide (desirable), a score of 3 indicates antagonist efficacy between enzalutamide and bicalutamide (less desirable activity), a score of 4 indicates antagonist efficacy equal to bicalutamide (liability), and a score of 5 indicates antagonist efficacy worse than bicalutamide (liability) For B9, Compounds that degrade AR (greater than 50% degradation at 10 μM) are indicated.

Each structure is given as a SMILES string. Positions count from the first letter of the chain named. Bounds are passed on as bounds.

For `CC1(C)CC(=O)C2=C(C1)Nc1cc(N3CCCC3)ccc1C2c1ccc(Cl)s1` (racemic) [Compound A97, (±)-9-(5-chlorothiophen-2-yl)-3,3-dimethyl-6-(pyrrolidin-1-yl)-3,4,9,10-tetrahydroacridin-1(2H)-one], the IC50 on AR [1] is > 10 µM. The “B9 = AR degradation in LNCaP cells (In-Cell Western)” value (“B9 = AR degradation in LNCaP cells” below) on AR [2] was “Degrader (Compounds that degrade AR (greater than 50% degradation at 10 μM) are indicated)”.

Turning to `CC1(C)CC(=O)C2=C(C1)Nc1ccc3ncccc3c1C2c1cccc(C(F)(F)F)c1` (centres unmarked) [Compound A70], the IC50 on AR [1] was > 10 µM. The “B9 = AR degradation in LNCaP cells” value at AR [2] is on record as “Degrader (Compounds that degrade AR (greater than 50% degradation at 10 μM) are indicated)”.

In the case of `CC1(C)CC(=O)C2=C(C1)Nc1ccc3ncccc3c1C2c1cc(Br)cs1` (centres unmarked) [Compound A61], the half-maximal inhibitory concentration (IC50) at AR [1] turned out to be 1.8 µM. Moreover, the “B9 = AR degradation in LNCaP cells” value at AR [2] is listed as “Degrader (Compounds that degrade AR (greater than 50% degradation at 10 μM) are indicated)”.

In the case of `CC1(C)CC(=O)C2=C(C1)Nc1ccc3ncccc3c1C2c1ccc(Cl)s1` (centres unmarked) [Compound A64], the IC50 on AR [1] stood at 1.9 µM. Also, the “B9 = AR degradation in LNCaP cells” value at AR [2] is given as “Degrader (Compounds that degrade AR (greater than 50% degradation at 10 μM) are indicated)”.

In the case of `CC1(C)CC(=O)C2=C(C1)Nc1ccc3ncccc3c1C2c1ccc(Cl)cc1Cl` (racemic) [Compound A88, (±)-12-(2,4-dichlorophenyl)-9,9-dimethyl-8,9,10,12-tetrahydrobenzo[b][4,7]phenanthrolin-11(7H)-one], the IC50 on AR [1] turned out to be 1.1 µM. Moreover, on AR [2], the “B9 = AR degradation in LNCaP cells” value is given as “Degrader (Compounds that degrade AR (greater than 50% degradation at 10 μM) are indicated)”.

Regarding `CC1(C)CC(=O)C2=C(C1)Nc1ccc3nccnc3c1C2c1ccc(F)c(F)c1` (racemic) [Compound A83, (±)-12-(3,4-difluorophenyl)-9,9-dimethyl-8,9,10,12-tetrahydropyrazino[2,3-a]acridin-11(7H)-one], at AR [1], the IC50 was determined as 7.4 µM. Further, the “B9 = AR degradation in LNCaP cells” value at AR [2] is on record as “Degrader (Compounds that degrade AR (greater than 50% degradation at 10 μM) are indicated)”.

For `CC1(C)CC(=O)C2=C(C1)Nc1ccc3ncccc3c1C2c1cc2ccccc2s1` (racemic) [Compound A92, (±)-12-(benzo[b]thiophen-2-yl)-9,9-dimethyl-8,9,10,12-tetrahydrobenzo[b][4,7]phenanthrolin-11(7H)-one], the IC50 on AR [1] came out at 0.9 µM. For the same molecule, the “B9 = AR degradation in LNCaP cells” value on AR [2] was “Degrader (Compounds that degrade AR (greater than 50% degradation at 10 μM) are indicated)”.

`O=C1C2=C(C(=O)c3ccccc31)C(c1ccc(F)c(F)c1)c1c(ccc3ncccc13)N2` (racemic) [Compound A85, (±)-14-(3,4-difluorophenyl)naphtho[2,3-b][4,7]phenanthroline-8,13(7H,14H)-dione]: the half-maximal inhibitory concentration (IC50) on AR [1] is > 10 µM. The “B9 = AR degradation in LNCaP cells” value at AR [2] is “Degrader (Compounds that degrade AR (greater than 50% degradation at 10 μM) are indicated)”.

As to `CC1(C)CC(=O)C2=C(C1)Nc1ccc3ncccc3c1C2c1ccccn1` (centres unmarked) [Compound A57, 9,9-dimethyl-12-(pyridin-2-yl)-8,9,10,12-tetrahydrobenzo[b][4,7]phenanthrolin-11(7H)-one], on AR [1], the IC50 was > 10 µM. Moreover, at AR [2], the “B9 = AR degradation in LNCaP cells” value is listed as “Degrader (Compounds that degrade AR (greater than 50% degradation at 10 μM) are indicated)”.

Take `Cc1ccsc1C1C2=C(CC(C)(C)CC2=O)Nc2ccc3ccccc3c21` (centres unmarked) [Compound A117]: the IC50 at AR [1] was found to be 2.3 µM. The “B9 = AR degradation in LNCaP cells” value at AR [2] is “Degrader (Compounds that degrade AR (greater than 50% degradation at 10 μM) are indicated)”.

On to `CC1(C)CC(=O)C2=C(C1)Nc1ccc3ncccc3c1C2c1ccc(F)c(Br)c1` (centres unmarked) [Compound A74], for which the IC50 on AR [1] is 8.6 µM. Further, at AR [2], the “B9 = AR degradation in LNCaP cells” value was “Degrader (Compounds that degrade AR (greater than 50% degradation at 10 μM) are indicated)”.

For `CC1(C)CC(=O)C2=C(C1)Nc1ccc3c(c1C2c1ccc(F)c(F)c1)OCO3` (centres unmarked) [Compound A59], at AR [1], the IC50 is > 10 µM. Besides, the “B9 = AR degradation in LNCaP cells” value at AR [2] is recorded as “Degrader (Compounds that degrade AR (greater than 50% degradation at 10 μM) are indicated)”.

As to `CC1(C)CC(=O)C2=C(C1)Nc1ccc3cnccc3c1C2c1ccc(F)c(F)c1` (racemic) [Compound A91, (±)-12-(3,4-difluorophenyl)-9,9-dimethyl-8,9,10,12-tetrahydrobenzo[j][3,7]phenanthrolin-11(7H)-one], on AR [1], the IC50 worked out at 1.4 µM. At AR [2], the “B9 = AR degradation in LNCaP cells” value is listed as “Degrader (Compounds that degrade AR (greater than 50% degradation at 10 μM) are indicated)”.

Consider `Cc1ccsc1C1C2=C(CC(C)(C)CC2=O)Nc2cc(N3CCCC3)ccc21` (centres unmarked) [Compound A116], for which the IC50 at AR [1] is > 10 µM. Besides, at AR [2], the “B9 = AR degradation in LNCaP cells” value is reported as “Degrader (Compounds that degrade AR (greater than 50% degradation at 10 μM) are indicated)”.

Regarding `CC1(C)CC(=O)C2=C(C1)Nc1ccc3cccnc3c1C2c1ccc(F)c(F)c1` (racemic) [Compound A96, (±)-12-(3,4-difluorophenyl)-9,9-dimethyl-8,9,10,12-tetrahydrobenzo[j][1,7]phenanthrolin-11(7H)-one], the IC50 at AR [1] turned out to be 0.8 µM. Further, the “B9 = AR degradation in LNCaP cells” value on AR [2] was “Degrader (Compounds that degrade AR (greater than 50% degradation at 10 μM) are indicated)”.

Regarding `CC1(C)CC(=O)C2=C(C1)Nc1ccc3ncccc3c1C2c1ccsc1` (centres unmarked) [Compound A69], at AR [1], the IC50 is 6.1 µM. In addition, on AR [2], the “B9 = AR degradation in LNCaP cells” value is listed as “Degrader (Compounds that degrade AR (greater than 50% degradation at 10 μM) are indicated)”.
